Patent US9464064B2, “HCV helicase inhibitors and methods of use thereof” (University of Kansas, priority 2011, dated 2016)
Like-named read-outs stand apart in the source and are kept apart here.

What was measured:
[1] = target: T1, HCV NS3 helicase NS3h_1b(con1) (Hepatitis C virus genotype 1b, UniProt Q9WMX2); assay: biochemical; format: biochemical, hepatitis C virus genotype 1b(con1)
T1 construct: truncated C-terminally His-tagged NS3 proteins lacking the N-terminal protease, called NS3h; His-tag (C); made in house
T1 sequence (Q9WMX2 1192-1657): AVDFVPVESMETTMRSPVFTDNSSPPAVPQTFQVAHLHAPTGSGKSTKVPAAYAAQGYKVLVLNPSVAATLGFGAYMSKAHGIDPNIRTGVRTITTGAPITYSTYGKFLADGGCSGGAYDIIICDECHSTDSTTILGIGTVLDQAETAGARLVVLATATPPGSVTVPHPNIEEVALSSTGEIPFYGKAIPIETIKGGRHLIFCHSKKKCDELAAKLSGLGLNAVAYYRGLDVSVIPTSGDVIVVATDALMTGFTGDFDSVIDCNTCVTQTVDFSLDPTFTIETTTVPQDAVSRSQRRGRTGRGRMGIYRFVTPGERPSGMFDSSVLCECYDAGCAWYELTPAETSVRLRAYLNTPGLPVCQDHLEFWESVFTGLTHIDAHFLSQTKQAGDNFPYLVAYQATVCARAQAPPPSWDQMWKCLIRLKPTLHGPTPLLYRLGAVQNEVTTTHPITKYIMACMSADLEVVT
How it was run: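 Molecular beacon helicase assay with His-tagged recombinant NS3 and a Cy5/IBRQ-labelled partially duplex DNA substrate (25 bp) or Tye665-labelled RNA substrate (19 bp). Reactions started with 1 mM ATP. Screening read fluorescence before and 30 min after ATP (ex 643/em 670 nm). For IC50, 5% v/v DMSO was present, initial velocities came from first-order decay fits, and a Hill equation was applied.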

scNS4A-NS3 = scNS4A-NS3 (Hepatitis C virus genotype 1b, UniProt Q9WMX2); assay: NS3 protease assay (ENZOLYTE 520), full-length; format: biochemical, hepatitis C virus genotype 1b(con1); design: other: average of two sets; There is also a His tag
scNS4A-NS3, sequence (Q9WMX2 1027-1657): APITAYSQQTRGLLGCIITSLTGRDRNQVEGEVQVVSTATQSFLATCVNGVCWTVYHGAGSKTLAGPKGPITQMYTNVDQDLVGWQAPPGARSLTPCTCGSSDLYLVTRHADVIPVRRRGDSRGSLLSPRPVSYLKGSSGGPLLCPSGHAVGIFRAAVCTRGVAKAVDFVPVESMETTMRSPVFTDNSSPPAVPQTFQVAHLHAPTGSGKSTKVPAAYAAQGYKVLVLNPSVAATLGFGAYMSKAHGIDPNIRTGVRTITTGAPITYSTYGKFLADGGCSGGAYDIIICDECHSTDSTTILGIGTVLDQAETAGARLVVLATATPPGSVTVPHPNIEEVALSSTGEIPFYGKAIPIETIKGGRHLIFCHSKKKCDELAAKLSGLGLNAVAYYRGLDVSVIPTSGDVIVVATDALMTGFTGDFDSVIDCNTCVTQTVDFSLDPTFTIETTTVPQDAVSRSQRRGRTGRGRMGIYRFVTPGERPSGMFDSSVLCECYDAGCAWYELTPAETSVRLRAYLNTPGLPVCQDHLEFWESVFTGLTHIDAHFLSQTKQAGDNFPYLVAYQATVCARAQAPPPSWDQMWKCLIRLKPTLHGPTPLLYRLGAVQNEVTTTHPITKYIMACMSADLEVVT
Experimental: All oligonucleotides were purchased from Integrated DNA Technologies (IDT, Coralville, Iowa). Primuline derivatives were synthesized and purified as described herein. Three different NS3 proteins were used in this study. Two were truncated C-terminally His-tagged NS3 proteins lacking the N-terminal protease, called NS3h, the third was a full-length NS3 with the portion of NS4A needed for protease activation fused to its N-terminus, called scNS4A-NS3 (Howe, et al. (1999) Protein Sci. 8:1332-41), and the fourth was a 23 kDa scNS4A-NS3 protease fragment lacking the helicase domains, called scNS4A-NS3p (Protein One, Rockville, Md.). NS3h was expressed from two different HCV strains. NS3h_1b(con1) was from the con1 strain of genotype 1b (GENBANK accession AB114136), and NS3h_2a(JFH1) was from the JFH1 strain of HCV genotype 2a (GENBANK accession AJ238799). […] His-tagged recombinant NS3h_1b(con1), NS3h_2a(JFH1), and scNS4A-NS3 (also from genotype 1b(con1)) were expressed, and purified as previously described (Frick, et al. (2010) supra; Lam, et al. (2003) J. Virol. 77:3950-3961). The scNS4A-NS3p (genotype 1b) was from Protein One. A plasmid expressing NS3h from dengue virus strain 2 (NS3h_DV2)(GENBANK accession 2BMF) is known in the art (Xu, et al. (2005) J. Virol. 79:10278-10288), and used to express and purify NS3h_DV2 (Belon, et al. (2010) supra)
All NS3 protease assays were carried out using the 5-Carboxyfluorescein-labeled substrate from the AnaSpec. ENZOLYTE 520 Protease Assay Kit (AnaSpec, San Jose, Calif.). Each assay contained 5 nM scNS4A-NS3 or 50 nM scNS4A-NS3p, […], 5% DMSO and 1× Anaspec HCV protease assay buffer. Assays were carried out in a total volume of 20 μl in black 384-well plates with fluorescence at 520 nm measured using a BMG FLUOstar Omega fluorescence spectrophotometer. Reactions were performed with eight concentrations of a two-fold dilution series of each compound (in duplicate) starting at 100 μM.

NS3h_2a = target: T2, NS3h_2a (Hepatitis C virus genotype 2a, UniProt Q99IB8); assay: RNA helicase assay (three-stranded RNA substrate); format: biochemical, hepatitis C virus genotype 2a(JFH1)
T2 construct: truncated C-terminally His-tagged NS3 proteins lacking the N-terminal protease, called NS3h; His-tag (C); made in house
T2 sequence (Q99IB8 1196-1661): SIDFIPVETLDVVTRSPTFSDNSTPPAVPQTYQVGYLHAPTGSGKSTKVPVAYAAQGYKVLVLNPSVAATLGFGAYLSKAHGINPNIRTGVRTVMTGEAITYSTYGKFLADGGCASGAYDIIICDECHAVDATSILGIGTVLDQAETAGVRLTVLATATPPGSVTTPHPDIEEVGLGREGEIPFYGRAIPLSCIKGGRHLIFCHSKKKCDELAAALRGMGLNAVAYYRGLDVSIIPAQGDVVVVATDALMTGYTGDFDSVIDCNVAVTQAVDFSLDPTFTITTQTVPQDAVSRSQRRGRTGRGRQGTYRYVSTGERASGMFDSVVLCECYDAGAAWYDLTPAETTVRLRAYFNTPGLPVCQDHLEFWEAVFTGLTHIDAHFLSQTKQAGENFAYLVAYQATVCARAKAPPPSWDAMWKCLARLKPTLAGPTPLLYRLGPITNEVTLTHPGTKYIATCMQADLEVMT
Experimental: To act as antivirals in cells, it is also important for an HCV helicase inhibitor to inhibit the activity of the NS3h on RNA. […] As with protein specificity, no differences were uncovered regarding substrate specificity for any of the compounds tested. In other words, none of the compounds preferred to act either on DNA or RNA substrates.

[2] = DNA-based MBHA, genotype 1b, read-out: DNA Helicase NS3h_1b IC50 (μM) ± SD
[3] = MBHA, DNA unwinding, mean ± SD of three titrations, read-out: Helicase IC50
[4] = genotype 1b (con1), read-out: Target Potency MBHA (IC50 avg., μM) 1b (con1)
[5] = standard HCV helicase MBHA (Table 9), read-out: DNA Unwinding IC50

Row | SMILES | IC50 [1, 2] | IC50 [1, 3] | IC50 [1, 4] | IC50 [1, 5] | IC50 (scNS4A-NS3) | IC50 (NS3h_2a) | times lower affinity towards NS3 than P4 ([1]; versus P4)
1 | Cc1ccc2nc(-c3ccc4nc(-c5ccc(NC(=O)c6cc(C(F)(F)F)cc(C(F)(F)F)c6)cc5)sc4c3)sc2c1S(=O)(=O)O [Compound 24, 2′-(4-(3,5-bis(trifluoromethyl)benzamido)phenyl)-6-methyl-[2,6′-bibenzo[d]thiazole]-7-sulfonic acid] | 22 ± 4.2 µM | 22 ± 4 µM | 22.2 ± 4 µM | 22 ± 4 µM | 23 ± 15 µM | 14 ± 13 µM | –
2 | Cc1ccc2nc(-c3ccc4nc(-c5ccc(NC(=O)c6cc(C(F)(F)F)ccc6F)cc5)sc4c3)sc2c1S(=O)(=O)O [Compound 25, 2′-(4-(2-fluoro-5-(trifluoromethyl)benzamido)phenyl)-6-methyl-[2,6′-bibenzo[d]thiazole]-7-sulfonic acid] | 6 ± 1.9 µM | 6.4 ± 2 µM | 6.4 ± 2 µM | 6 ± 2 µM | 51 ± 25 µM | 10 ± 3 µM | –
3 | Cc1ccc2nc(-c3ccc4nc(-c5ccc(NC(=O)c6ccc7ccccc7c6)cc5)sc4c3)sc2c1S(=O)(=O)O [Compound 33, 2′-(4-(2-naphthamido)phenyl)-6-methyl-[2,6′-bibenzo[d]thiazole]-7-sulfonic acid] | 3 ± 0.7 µM | 2.7 ± 0.7 µM | 3.6 µM | 4 µM | > 100 µM | 3 ± 2 µM | –
4 | Cc1ccc2nc(-c3ccc4nc(-c5ccc(NC(=O)c6ccc7nc(-c8ccc(N)cc8)sc7c6)cc5)sc4c3)sc2c1S(=O)(=O)O [Compound 35, 2′-(4-(2-(4-aminophenyl)benzo[d]thiazole-6-carboxamido)phenyl)-6-methyl-[2,6′-bibenzo[d]thiazole]-7-sulfonic acid] | 6 ± 2.1 µM | 5.5 ± 2.1 µM | 5.5 ± 2.1 µM | 6 ± 2 µM | 7 ± 1 µM | 6 ± 5.4 µM | –
5 | Cc1ccc2nc(-c3ccc4nc(-c5ccc(N)cc5)sc4c3)sc2c1S(=O)(=O)O [Compound P2a, 2′-(4-aminophenyl)-6-methyl-[2,6′-bibenzo[d]thiazole]-7-sulfonic acid] | 45 ± 14 µM | 49 µM | – | 6 ± 2 µM | > 100 µM | 32 ± 14 µM | 10-20 times
6 | Cc1ccc2nc(-c3ccc4nc(-c5ccc6nc(-c7ccc8nc(-c9ccc(N)cc9)sc8c7)sc6c5)sc4c3)sc2c1S(=O)(=O)O [Compound P4, 2′″-(4-aminophenyl)-6-methyl-[2,6′:2″,6′″-quaterbenzo[d]thiazole]-7-sulfonic acid] | 2 ± 0.1 µM | 0.8 µM | – | – | 2 ± 1 µM | 3 ± 1.3 µM | –
